Test results reported in ChEMBL document CHEMBL5154808, “Novel β-Hairpin Antimicrobial Peptides Containing the β-Turn Sequence of -RRRF- Having High Cell Selectivity and Low Incidence of Drug Resistance” (J Med Chem, 2022).
≈ marks a conversion by molar mass, not a printed value. Calls of active or inactive are those of the source. The rule behind the calls is not given here. Where a SMILES comes first, the peptide text is derived from it. Bridges are numbered along the chain shown (N, C = ends). [ ]: non-standard residue; d: D form. The star is where a group is joined. X1 = CC[C@H](C)CCCCC(=O)*; Dab = NCC[C@H](N)C(=O)O

What was measured:
[1] = Acute toxicity in ip dosed Kunming mouse assessed as lethal dose; format: organism-based; settings: in vivo
Staphylococcus aureus [2] = assay: Antimicrobial activity against Staphylococcus aureus ATCC 25923 assessed as reduction of bacterial growth incubated for 18 hrs by CLSI protocol based broth microdilution method; format: functional
Cell membrane [3] = assay: Induction of cytoplasmic membrane depolarization in Pseudomonas aeruginosa ATCC 27853 assessed as increase in fluorescence intensity at 1 to 4 times MIC measured after 1 min by DiSC3-5 dye based fluorescence method; format: subcellular
[4] = system: Staphylococcus epidermidis; assay: Antimicrobial activity against Staphylococcus epidermidis ATCC 12228 assessed as reduction of bacterial growth incubated for 18 hrs by CLSI protocol based broth microdilution method; format: functional
[5] = Acute toxicity in Kunming mouse assessed as distortion of alveolar morphology at 25 mg/kg, ip by H and E staining based analysis; format: organism-based; settings: in vivo
Pseudomonas aeruginosa = assay: Antimicrobial activity against Pseudomonas aeruginosa ATCC 27853 assessed as reduction of bacterial growth incubated for 18 hrs by CLSI protocol based broth microdilution method; format: functional
Staphylococcus aureus [6] = assay: Induction of drug resistance in Staphylococcus aureus ATCC 25923 assessed as increase in MIC after 10 passages by CLSI protocol based broth microdilution method; format: functional
[7] = Cytotoxicity against human HK-2 cells assessed as reduction in cell viability incubated for 1 hr by resazurin based microplate reader method; format: toxicity
[8] = Acute toxicity in Kunming mouse assessed as increased interalveolar space at 25 mg/kg, ip by H and E staining based analysis; format: organism-based; settings: in vivo
Bacillus subtilis = assay: Antimicrobial activity against Bacillus subtilis ATCC 23857 assessed as reduction of bacterial growth incubated for 18 hrs by CLSI protocol based broth microdilution method; format: functional
Lipopolysaccharide (LPS) = assay: Binding affinity to LPS (unknown origin) assessed as reduction in bactericidal activity against Escherichia coli ATCC 25922 at 2 times MIC incubated for 2 hrs in presence of 32 ug/ml of LPS by competitive binding assay
Enterococcus faecalis = assay: Antimicrobial activity against Enterococcus faecalis ATCC 29212 assessed as reduction of bacterial growth incubated for 18 hrs by CLSI protocol based broth microdilution method; format: functional
Escherichia coli [9] = assay: Antimicrobial activity against Escherichia coli ATCC 25922 assessed as breakage of cell membrane measured after 4 hrs by SEM analysis; format: functional, organism-based
Escherichia coli [10] = assay: Antimicrobial activity against Escherichia coli ATCC 25922 assessed as reduction of bacterial growth incubated for 18 hrs by CLSI protocol based broth microdilution method; format: functional
Erythrocyte = assay: Hemolytic activity in mouse red blood cells assessed as release of hemoglobin incubated for 1 hr by microplate reader method; format: toxicity, cell-based
Staphylococcus aureus [11] = assay: Antibacterial activity against Staphylococcus aureus ATCC 25923 infected in BALB/c mouse assessed as reduction in bacterial load in lung at 5 to 10 mg/kg, ip measured after 4 to 12 hrs (reference value: 5.6 x 10^6 CFU/g); format: functional; settings: dose 5-10 mg/kg, time 4-12 hrs
Klebsiella pneumoniae = assay: Antimicrobial activity against Klebsiella pneumoniae ATCC 700603 assessed as reduction of bacterial growth incubated for 18 hrs by CLSI protocol based broth microdilution method; format: functional
Cell membrane [12] = assay: Induction of cytoplasmic membrane depolarization in Staphylococcus aureus ATCC 25923 assessed as increase in fluorescence intensity at 4 times MIC measured after 1 min by DiSC3-5 dye based fluorescence method; format: subcellular
[13] = Acute toxicity in Kunming mouse assessed as swollen kidney cells at 25 mg/kg, ip by H and E staining based analysis; format: organism-based; settings: in vivo
Staphylococcus aureus [14] = assay: Bactericidal activity against Staphylococcus aureus ATCC 25923 assessed as time required to kill bacteria at 2 times MIC by time-killing assay; format: functional
[15] = Acute toxicity in Kunming mouse assessed as pulmonary congestion at 25 mg/kg, ip by H and E staining based analysis; format: organism-based; settings: in vivo
Escherichia coli [16] = assay: Synergistic antibacterial activity against meropenem-resistant Escherichia coli ATCC 25922 assessed as fractional inhibitory concentration index incubated for 18 hrs in presence of meropenem by checker board assay; format: functional
Cell membrane [17] = assay: Induction of cytoplasmic membrane depolarization in […] assessed as increase in fluorescence intensity at 1 to 4 times MIC measured after 1 min by DiSC3-5 dye based fluorescence method; format: subcellular
[18] = Acute toxicity in Kunming mouse assessed as respiratory depression in lungs by measuring mortality at 19 to 30 mg/kg, ip within 1 hr; format: organism-based; settings: in vivo, dose 19-30 mg/kg
Staphylococcus aureus [19] = assay: Synergistic antibacterial activity against rifampicin-resistant Staphylococcus aureus ATCC 25923 assessed as fractional inhibitory concentration index incubated for 18 hrs in presence of rifampicin by checker board assay; format: functional
Cell membrane [20] = assay: Induction of inner membrane permeabilization in Escherichia coli ML-35 ATCC 43587 at 1 to 4 times MIC by ONPG based assay; settings: DDE = dose-dependent effect
Escherichia coli [21] = assay: Synergistic antibacterial activity against rifampicin-resistant Escherichia coli ATCC 25922 assessed as fractional inhibitory concentration index incubated for 18 hrs in presence of rifampicin by checker board assay; format: functional
Escherichia coli [22] = assay: Antimicrobial activity against Escherichia coli ATCC 25922 assessed as swollen cell membrane measured after 0.5 to 2 hrs by SEM analysis; format: functional, organism-based; settings: time 0.5-2 hrs
Escherichia coli [23] = assay: Synergistic antibacterial activity against kanamycin-resisitant Escherichia coli ATCC 25922 assessed as fractional inhibitory concentration index incubated for 18 hrs in presence of kanamycin by checker board assay; format: functional

## CC[C@H](C)CCCCC(=O)N[C@@H](CCN)C(=O)N[C@H](C(=O)N[C@@H](CCN)C(=O)N[C@H]1CCNC(=O)[C@H]([C@@H](C)O)NC(=O)[C@H](CCN)NC(=O)[C@H](CCN)NC(=O)[C@H](CC(C)C)NC(=O)[C@@H](Cc2ccccc2)NC(=O)[C@H](CCN)NC1=O)[C@@H](C)O (X1-[Dab]T[Dab][Dab][Dab][dF]L[Dab][Dab]T; lactam 4-C)
[1]
  LD50: 25.5 mg/kg
Staphylococcus aureus [2]
  MIC: 16 µM (≈ 19.3 µg/mL)
Cell membrane [3]
  Activity: Active
[4]
  MIC: 16 µM (≈ 19.3 µg/mL)
[5]
  Activity: Toxic
Pseudomonas aeruginosa
  MIC: 2 µM (≈ 2.41 µg/mL)
Staphylococcus aureus [6]
  Activity: Active
[7]
  CC50 at 1 h: > 128 µM
[8]
  Activity: Toxic
Bacillus subtilis
  MIC: 4 µM (≈ 4.81 µg/mL)
Lipopolysaccharide (LPS)
  Activity: Active
Enterococcus faecalis
  MIC: 128 µM (≈ 154 µg/mL)
Escherichia coli [9]
  Activity: Active
Escherichia coli [10]
  MIC: 4 µM (≈ 4.81 µg/mL)
Erythrocyte
  HC10: > 256 µM
Staphylococcus aureus [11]
  Activity: 0 CFU/g
Klebsiella pneumoniae
  MIC: 4 µM (≈ 4.81 µg/mL)
Cell membrane [12]
  Activity: Active
[13]
  Activity: Toxic
Staphylococcus aureus [14]
  Time: 6 h
[15]
  Activity: Toxic
Escherichia coli [16]
  fractional inhibitory concentration index (FICI): 1.25
Cell membrane [17]
  Activity: Active
[18]
  Activity: Toxic
Staphylococcus aureus [19]
  fractional inhibitory concentration index (FICI): 0.75
Cell membrane [20]
  Activity: Dde
Escherichia coli [21]
  fractional inhibitory concentration index (FICI): 0.3125
Escherichia coli [22]
  Activity: Active
Escherichia coli [23]
  fractional inhibitory concentration index (FICI): 0.25
